Values of other authors as cited in patent publication US20130035357A1, “Compositions and Methods for Preventing Joint Destruction in Osteoarthritis” (TRUSTEES OF DARTMOUTH COLLEGE, priority 2010, published 2013).

How the values were obtained:
[1] = system: retinoid acid receptors (RARs; e.g., RARα, RARβ, and RARγ)
[2] = system: MMP-1
[3] = system: MMP-13
[4] = system: IL-1β-stimulated SW-1353 cells
[5] = system: RXRα, RXRβ, and RXRγ receptors
[6] = human chondrocytic cells in vitro
[7] = in vitro, by decreasing the transcription rate of the gene

SMILES	activity to bind retinoid acid receptors and to transactivate the related RAR genes [1]	production of mRNA and protein for MMP-1 [2, 6]	inhibition of proinflammatory cytokine-induced upregulation of MMP-1 [2, 7]	production of mRNA and protein for MMP-13 [3, 6]	inhibition of proinflammatory cytokine-induced upregulation of MMP-13 [3, 7]	breakdown of collagen by the cells [4, 6]	ability of IL-1β-stimulated SW-1353 cells to degrade collagen matrix ([4]; in vitro)	potency as an RXR agonist relative to bexarotene ([5]; compared with bexarotene)	potency as an agonist across RXRα, RXRβ, and RXRγ receptors ([5]; comparison between the three RXR subtypes)
C=C(c1ccc(C(=O)O)cc1)c1cc2c(cc1C)C(C)(C)CCC2(C)C [Bexarotene, bexarotene]	negligible activity	–	–	–	–	–	–	–	–
Cc1cc2c(cc1C1(c3ccc(C(=O)O)cn3)CC1)C(C)(C)CCC2(C)C [LG268]	–	inhibit	inhibit	inhibit	inhibit	prevented breakdown of collagen	blunt	almost an order of magnitude more potent than bexarotene	equal potency
